Assay results published in PMC12006171, “Marsupial cathelicidins: characterization, antimicrobial activity and evolution in this unique mammalian lineage” (Frontiers in Immunology, 2025).
In brackets after ≈: the same amount, converted by molar mass. Where two headings read alike, the source gives them in different places. Where a SMILES comes first, the peptide text is derived from it.

Tests used:
Type in all cases: cell-based
[1] = system: Escherichia coli clinical isolate - animal; experiment: microbe, parasite or virus in culture
Method in brief: (§1)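 Broth microdilution following CLSI M07-A/M26A, using peptides at 64–0.125 μg/mL final in MHB, with or without 10% lysed horse blood and with or without Ca/Mg cations (MH II B). Inoculum 5 x 10^5 CFU/mL, incubated 20–24 h at 35 °C; MIC is lowest concentration preventing visible growth, MBC by colony counts versus starting inoculum.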

[2] = system: Pseudomonas aeruginosa ATCC 27853; experiment: microbe, parasite or virus in culture
Method in brief: as §1

[3] = system: Staphylococcus aureus clinical isolate - animal; experiment: microbe, parasite or virus in culture
Method in brief: as §1

[4] = system: Escherichia coli ATCC 25922; experiment: microbe, parasite or virus in culture
Method in brief: as §1

[5] = system: Staphylococcus aureus ATCC 29213; experiment: microbe, parasite or virus in culture
Method in brief: as §1

[6] = system: Pseudomonas aeruginosa clinical isolate - animal; experiment: microbe, parasite or virus in culture
Method in brief: as §1

[7] = system: Staphylococcus aureus clinical isolate – animal, methicillin-resistant (MRSA)
Protocol: (§2) Antimicrobial testing of 78 cathelicidin MPs was performed in two phases as outlined in Figure 1 . In phase I, 40 peptides (27 extant and 13 ancestral) were selected for testing based on rank (outlined above) and similarity to published marsupial cathelicidins with known antimicrobial activity ([33], [41]–[43]). These peptides were tested against nine bacteria (Staphylococcus aureus ATCC 29213 and clinical isolate, Escherichia coli ATCC 25922 and clinical isolate, Pseudomonas aeruginosa ATCC 27853 and clinical isolate, Streptococcus agalactiae ATCC 12386 and clinical isolate, Streptococcus pneumoniae ATCC 49619) and three fungi (Candida krusei ATCC 6258, Candida parapsilosis ATCC 22019, and Candida albicans clinical isolate). Details regarding these strains are available in Supplementary Table 4 . The antimicrobial activity of cathelicidins was determined as the minimum inhibitory concentration (MIC), which was the lowest concentration of cathelicidin that prevented visible bacterial or fungal growth, relative to the negative control. […] Minimum bactericidal concentration (MBC) and/or minimum fungicidal concentration (MFC) was conducted to determine microbicidal versus static action. Activity against S. aureus ATCC, E. coli ATCC, and Pseudomonas aeruginosa ATCC 27853 was examined in the presence of divalent cations to determine the impact of inhibitors.
(§3) Antimicrobial activity was determined using a broth microdilution susceptibility assay in 96 well polypropylene plates according to Clinical Laboratory Standards Institute guidelines M07-A and M26A as described previously ([33], [42], [43]). The bacterial and fungal isolates from humans and animals used in this study are outlined in Supplementary Table 4 . Only yeasts were included in the panel of fungi as they have been used in the susceptibility testing of eutherian ([3], [81]–[83]) and other marsupial cathelicidins previously ([33], [42], [43]). Cathelicidin mature peptides were solubilized in DMSO and serially diluted in duplicate from 128-0.25μg/mL in a final volume of 100µL. For bacteria, cathelicidins were diluted in Mueller Hinton Broth (MHB) with or without 10% lysed horse blood, and with (MH II B) or without (MHB) calcium and magnesium cations. For fungi, cathelicidins were diluted in Roswell Park Memorial Institute medium (RPMI)-1640 MOPS. Ampicillin or tetracycline were included as a positive control for Gram-positive and -negative bacteria respectively, while amphotericin B was used for fungi. A media-only negative control and growth control (no cathelicidin) were also included on each plate. Bacteria were sub-cultured on Muller Hinton agar (MHA) or sheep blood agar (BA), and fungi on Sabouraud dextrose agar (SAB), 20–24 hours prior to the test. Colonies were suspended in saline, the concentration adjusted to a 0.5 McFarland standard, and then diluted in media to a concentration of 1.0 x 10^6 cells/mL. Then, 100μL was added to each well of the cathelicidin dilution plate, giving a final inoculum density of 5 x 10^5 CFU/mL and cathelicidin concentration of 64-0.125μg/mL. Colony counts were performed on MHA/BA/SAB to confirm inoculum density. All plates were incubated at 35°C for 20–24 hours, depending on the strain.
(§4) Colonies were counted and compared to the colony count of the starting inoculum.

[8] = system: Staphylococcus aureus clinical isolate – animal, penicillin-resistant (PRSA)
Protocol: as §2, §3, §4

Candida krusei ATCC 6258 = experiment: microbe, parasite or virus in culture
Method in brief: (§5)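 Broth microdilution per CLSI M07-A/M26A; peptides in DMSO, final 64-0.125 μg/mL, inoculum 5 x 10^5 CFU/mL. Bacteria in MHB ± 10% lysed horse blood ± Ca/Mg cations, yeasts in RPMI-1640 MOPS; 35°C for 20–24 h. MIC is lowest concentration without visible growth.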

[9] = system: Candida parapsilosis ATCC 22019; experiment: microbe, parasite or virus in culture; settings: for MIC: read-out: MIC C. parapsilosis ATCC
Method in brief: as §5

[10] = system: Streptococcus agalactiae ATCC 12386; experiment: microbe, parasite or virus in culture
Method in brief: as §5

[11] = system: Streptococcus agalactiae Clinical isolate - animal; experiment: microbe, parasite or virus in culture
Method in brief: as §5

[12] = system: Candida albicans Clinical isolate - human; experiment: microbe, parasite or virus in culture
Method in brief: as §5

[13] = system: Streptococcus pneumoniae ATCC 49619; experiment: microbe, parasite or virus in culture
Method in brief: as §5

[14] = clinical isolate, superscript value, cation-adjusted Mueller Hinton broth, µM equivalent
[15] = clinical isolate, value in brackets, µM equivalent of Table 3
[16] = clinical isolate, µM equivalent of Table 3
[17] = value in brackets, µM equivalent of Table 3
[18] = value in brackets, µM version of Table 4
[19] = clinical isolate – animal, methicillin-resistant
[20] = clinical isolate – animal, penicillin-resistant (PRSA)

CC[C@H](C)[C@H](NC(=O)[C@H](CCCCN)NC(=O)[C@H](Cc1ccccc1)NC(=O)[C@H](CC(N)=O)NC(=O)[C@H](CCCCN)NC(=O)[C@H](CC(C)C)NC(=O)[C@H](CCCNC(=N)N)NC(=O)[C@H](CCCCN)NC(=O)[C@H](CCCCN)NC(=O)[C@@H](NC(=O)[C@H](CO)NC(=O)[C@H](CC(=O)O)NC(=O)CNC(=O)[C@H](Cc1ccccc1)NC(=O)[C@H](CCCCN)NC(=O)[C@H](CCCCN)NC(=O)[C@H](CC(C)C)NC(=O)[C@H](CCCCN)NC(=O)[C@H](CCCCN)NC(=O)[C@H](CCCCN)NC(=O)[C@H](CC(C)C)NC(=O)[C@H](CO)NC(=O)[C@H](CCCCN)NC(=O)[C@H](Cc1c[nH]c2ccccc12)NC(=O)[C@H](CC(C)C)NC(=O)CNC(=O)[C@H](CCCNC(=N)N)NC(=O)[C@@H](N)CCCCN)[C@@H](C)CC)C(=O)NCC(=O)N[C@@H](Cc1ccccc1)C(=O)N1CCC[C@H]1C(=O)N[C@H](C(=O)N1CCC[C@H]1C(=O)N[C@@H](CC(C)C)C(=O)O)[C@@H](C)CC [MAP14] (H-KRGLWKSLKKKLKKFGDSIKKRLKNFKIGFPIPL-OH)
MIC in the presence of cations E. coli ([1]; clinical isolate, superscript value, cation-adjusted Mueller Hinton broth): 4 µg/mL | MIC in the presence of cations E. coli [1, 14]: 0.9 µM | MBC E. coli [1, 15]: 1.9 µM | MIC [1, 16]: 1.9 µM | MIC ([2]; superscript value, cation-adjusted Mueller Hinton broth, µM equivalent, read-out: MIC in the presence of cations P. aeruginosa ATCC): 1.9 µM | MBC P. aeruginosa ATCC [2, 17]: 3.9 µM | MIC ([2]; µM equivalent of Table 3, read-out: MIC P. aeruginosa ATCC): 3.9 µM | MIC in the presence of cations S. aureus [3, 14]: 7.9 (7.9)^7.9 µM | MBC S. aureus [3, 15]: 7.9 (7.9)^7.9 µM | MIC S. aureus [3, 16]: 7.9 (7.9)^7.9 µM | MIC in the presence of cations E. coli ATCC ([4]; superscript value, cation-adjusted Mueller Hinton broth, µM equivalent): 1.9 (1.9)^1.9 µM | MBC E. coli ATCC [4, 17]: 1.9 (1.9)^1.9 µM | MIC E. coli ATCC ([4]; µM equivalent of Table 3): 1.9 (1.9)^1.9 µM | MIC in the presence of cations S. aureus ATCC ([5]; superscript value, cation-adjusted Mueller Hinton broth, µM equivalent of Table 3): 7.9 (7.9)^7.9 µM | MBC S. aureus ATCC [5, 17]: 7.9 (7.9)^7.9 µM | MIC S. aureus ATCC ([5]; µM equivalent of Table 3): 7.9 (7.9)^7.9 µM | MBC P. aeruginosa [6, 15]: 3.9 (3.9)^3.9 µM | MIC P. aeruginosa [6, 16]: 3.9 (3.9)^3.9 µM | MBC MRSA [7, 17]: 15.8 µM | MIC MRSA ([7]; µM equivalent of Table 3): 15.8 µM | MBC PRSA [8, 17]: 3.9 µM | MIC PRSA ([8]; µM equivalent of Table 3): 3.9 µM | MFC C. krusei ATCC (Candida krusei ATCC 6258; [18]): > 15.8 µM | MIC C. krusei ATCC (Candida krusei ATCC 6258; µM version of Table 4): 15.8 µM (≈ 63.9 µg/mL) | MFC C. parapsilosis ATCC [9, 18]: 7.9 µM (≈ 31.9 µg/mL) | MIC ([9]; µM version of Table 4): 3.9 µM (≈ 15.8 µg/mL) | MBC S. agalactiae ATCC [10, 17]: 15.8 µM | MIC S. agalactiae ATCC ([10]; µM equivalent of Table 3): 15.8 µM | MBC S. agalactiae [11, 15]: 7.9 µM | MIC S. agalactiae [11, 16]: 7.9 µM | MIC ([12]; clinical isolate, µM version of Table 4, read-out: MIC C. albicans): >15.8 µM | MBC S. pneumoniae ATCC [13, 17]: 7.9 µM | MIC S. pneumoniae ATCC ([13]; µM equivalent of Table 3): 7.9 µM

CC[C@H](C)[C@H](NC(=O)[C@H](CCCNC(=N)N)NC(=O)CNC(=O)[C@H](CCCNC(=N)N)NC(=O)[C@@H](N)CCCCN)C(=O)N[C@@H](Cc1ccccc1)C(=O)N[C@@H](CCCNC(=N)N)C(=O)N[C@@H](CCCCN)C(=O)N[C@@H](Cc1ccccc1)C(=O)N[C@@H](CCCCN)C(=O)N[C@@H](CCCCN)C(=O)N[C@@H](CC(C)C)C(=O)N[C@@H](CC(C)C)C(=O)N[C@@H](CCCCN)C(=O)N[C@@H](CCCCN)C(=O)N[C@@H](CC(C)C)C(=O)NCC(=O)N[C@@H](CC(=O)O)C(=O)N[C@@H](CCCCN)C(=O)N[C@H](C(=O)N[C@@H](CCCCN)C(=O)N[C@@H](CC(N)=O)C(=O)N[C@H](C(=O)N[C@@H](CC(C)C)C(=O)N[C@@H](CCCCN)C(=O)N[C@@H](CC(N)=O)C(=O)N[C@@H](C)C(=O)N[C@@H](CCCNC(=N)N)C(=O)N[C@@H](CC(N)=O)C(=O)NCC(=O)N[C@@H](Cc1ccccc1)C(=O)N[C@@H](CC(C)C)C(=O)NCC(=O)N1CCC[C@H]1C(=O)N[C@H](C(=O)NCC(=O)N[C@@H](CCCNC(=N)N)C(=O)O)[C@@H](C)CC)[C@@H](C)O)[C@@H](C)CC [MAP8] (H-KRGRIFRKFKKLLKKLGDKIKNTLKNARNGFLGPIGR-OH)
MBC E. coli ([1]; clinical isolate - animal): 3.7 µM (≈ 16 µg/mL) | MIC ([1]; clinical isolate - animal): 3.7 µM (≈ 16 µg/mL) | MIC in the presence of cations E. coli ([1]; clinical isolate - animal): 1.8 µM | MBC P. aeruginosa ATCC ([2]; ATCC 27853): 3.7 (3.7)^3.7 µM | MIC P. aeruginosa ATCC ([2]; ATCC 27853): 3.7 (3.7)^3.7 µM | MIC in the presence of cations P. aeruginosa ATCC ([2]; ATCC 27853): 3.7 (3.7)^3.7 µM | MBC S. aureus ([3]; clinical isolate - animal): 7.4 (7.4)^7.4 µM | MIC S. aureus ([3]; clinical isolate - animal): 7.4 (7.4)^7.4 µM | MIC in the presence of cations S. aureus ([3]; clinical isolate - animal): 7.4 (7.4)^7.4 µM | MBC E. coli ATCC ([4]; ATCC 25922): 7.4 µM (≈ 31.9 µg/mL) | MIC ([4]; ATCC 25922, read-out: MIC E. coli ATCC): 3.7 µM (≈ 16 µg/mL) | MIC ([4]; ATCC 25922, read-out: MIC in the presence of cations E. coli ATCC): 3.7 µM | MBC S. aureus ATCC ([5]; ATCC 29213): 7.4 (7.4)^7.4 µM | MIC S. aureus ATCC ([5]; ATCC 29213): 7.4 (7.4)^7.4 µM | MIC in the presence of cations S. aureus ATCC ([5]; ATCC 29213): 7.4 (7.4)^7.4 µM | MBC P. aeruginosa ([6]; clinical isolate - animal): 7.4 µM (≈ 31.9 µg/mL) | MIC ([6]; clinical isolate - animal, read-out: MIC P. aeruginosa): 3.7 µM (≈ 16 µg/mL) | MIC ([6]; clinical isolate - animal, read-out: MIC in the presence of cations P. aeruginosa): 3.7 µM | MBC MRSA [7, 19]: > 14.8 µM | MIC MRSA [7, 19]: 14.8 µM (≈ 63.8 µg/mL) | MBC PRSA [8, 20]: 7.4 µM (≈ 31.9 µg/mL) | MIC PRSA [8, 20]: 3.7 µM (≈ 16 µg/mL) | MFC C. krusei ATCC (Candida krusei ATCC 6258; ATCC 6258): > 64 µg/mL | MIC ([9]; ATCC 22019): 7.4 µM (≈ 31.9 µg/mL) | MBC S. agalactiae ATCC ([10]; ATCC 12386): 14.8 µM (≈ 63.8 µg/mL) | MIC S. agalactiae ATCC ([10]; ATCC 12386): 14.8 µM (≈ 63.8 µg/mL) | MBC S. agalactiae ([11]; clinical isolate - animal): 7.4 µM (≈ 31.9 µg/mL) | MIC S. agalactiae ([11]; clinical isolate - animal): 7.4 µM (≈ 31.9 µg/mL) | MIC C. albicans ([12]; Clinical isolate - human): >64 µg/mL | MBC S. pneumoniae ATCC ([13]; ATCC 49619): 7.4 µM (≈ 31.9 µg/mL) | MIC S. pneumoniae ATCC ([13]; ATCC 49619): 7.4 µM (≈ 31.9 µg/mL)
